Data as given in US20240368406A1, “STABLE LIQUID PHANTOM FOR NEAR-INFRARED FLUORESCENCE VERIFICATION” (SURGVISION GMBH, priority 2021, published 2024).
Each block holds one compound with its values, some of them ahead of it.

Experiments:
[1] = Stability of the phantom solutions at +2-8° C. in the presence of additives (residual absorbance); assay type: physicochemical
Description: (§1) Stability was measured as reduction in the absorbance at the maximum wavelength of the dye acquired using a UV/VIS spectrophotometer, denoting reduction of the dye monomer content in solution. All the results were then reported as residual percentage vs the baseline (T=0), wherein at time=0 the percentage is 100%. A decrease in absorbance is associated with the reduction of the concentration of the dye in the formulation buffer, indicating low stability and degradation of the main chromophore species.
The effect of the presence of an additive on the stability of the formulations of the invention has been also investigated.
The preparation of the above buffers is described below:
50 mM HEPES (pH 7.4)+0.04% Tween 20: to prepare 100 mL of buffering solution, 1.19 g of HEPES were dissolved in 80 mL of water; 40 μL of Tween 20 were added and the pH was adjusted to 7.4 with 0.1 M HCl. The buffering solution was then brought to 100 mL volume with water and filtered on 0.22 μm membrane in sterile conditions.
50 mM HEPES (PH 7.4)+0.02% Sodium Azide: to prepare 100 mL of buffering solution, 1.19 g of HEPES and 20 mg of Sodium Azide were dissolved in 80 mL of water and the pH was adjusted to 7.4 with 0.1 M HCl. The buffering solution was then brought to 100 mL volume with water and filtered on 0.22 μm membrane in sterile conditions.
10 mM HEPES (PH 7.0)+10% EtOH: to prepare 100 mL of buffering solution, 0.24 g of HEPES were dissolved in 80 mL of water and the pH was adjusted to 7.0 with 0.1 M HCl.
Then, 10 mL of 100% Ethanol were added. The buffering solution was then brought to 100 mL volume with water and filtered on 0.22 μm membrane in sterile conditions.
Analogous solutions were prepared with the same procedure for MOPS, BES and TRICINE buffers.

[2] = Stability of the phantom solutions at +2-8° C. (residual absorbance, UV/VIS); assay type: physicochemical; conditions: +2-8° C.
Description: Several stability studies were performed to evaluate the effect of different buffers, additives such as excipients or preservatives, and storage conditions on the dye formulation. In particular the stability of the formulations after storage at +2-8° C. in a refrigerator was firstly investigated.
as §1
In the Tables below the residual absorbance of different dyes, i.e. […] and S0456, in some representative organic buffering solutions is reported after storage of the formulations at +2-8° C.

[3] = Stability of the phantom solutions at 25° C. (residual absorbance); assay type: physicochemical; conditions: storage at 25° C. in dark
Description: as §1
The stability of the formulations under stressed conditions was also investigated.

[4] = Stability of the phantom solutions at +2-8° C. during long-term storage (residual absorbance); assay type: physicochemical; conditions: 3 μM dye in HEPES 50 mM, pH 7.4, +2-8° C. protected from light
Description: Stability was measured as reduction in the absorbance at the maximum wavelength of the dye acquired using a UV/VIS spectrophotometer, denoting reduction of the dye monomer content in solution. […] A decrease in absorbance is associated with the reduction of the concentration of the dye in the formulation buffer, indicating low stability and degradation of the main chromophore species. The stability of the formulations under long-term storage conditions was also investigated. In particular, samples of 3 μM IRDye […] and 3 μM IRDye 800BK dissolved in HEPES buffer were stored refrigerated at +2-8° C. protected from light exposure for at least 6 months. For the long-term stability study at 2-8° C., samples of.

[5] = cited from earlier work

SMILES: CC1(C)C(=CC=C2CCCC(C=CC3=[N+](CCCCCC(=O)[O-])c4ccc(S(=O)(=O)[O-])cc4C3(C)C)=C2Oc2ccc(S(=O)(=O)[O-])cc2)N(CCCCS(=O)(=O)[O-])c2ccc(S(=O)(=O)[O-])cc21.[Na+].[Na+].[Na+].[Na+] [IRDye 800CW]
- Residual absorbance percentage ([1]; 3 μM dye in HEPES (50 mM, pH 7.4) +0.02% sodium azide, +2-8° C., 1 week): 96.9%
- Residual absorbance percentage ([1]; 3 μM dye in HEPES (50 mM, pH 7.4) +0.02% sodium azide, +2-8° C., 2 weeks): 92.4%
- Residual absorbance percentage ([1]; 3 μM dye in HEPES (50 mM, pH 7.4) +0.02% sodium azide, +2-8° C., 4 weeks): 89.1%
- Residual absorbance percentage ([1]; 3 μM dye in HEPES (50 mM, pH 7.4) +0.04% Tween 20, +2-8° C., 1 week): 100.5%
- Residual absorbance percentage ([1]; 3 μM dye in HEPES (50 mM, pH 7.4) +0.04% Tween 20, +2-8° C., 2 weeks): 95.8%
- Residual absorbance percentage ([1]; 3 μM dye in HEPES (50 mM, pH 7.4) +0.04% Tween 20, +2-8° C., 4 weeks): 92.4%
- Residual absorbance percentage ([1]; 3 μM dye in TRICINE (50 mM, pH 8.0) +0.02% sodium azide, +2-8° C., 1 week): 97.7%
- Residual absorbance percentage ([1]; 3 μM dye in TRICINE (50 mM, pH 8.0) +0.02% sodium azide, +2-8° C., 2 weeks): 93.0%
- Residual absorbance percentage ([1]; 3 μM dye in TRICINE (50 mM, pH 8.0) +0.02% sodium azide, +2-8° C., 4 weeks): 89.8%
- Residual absorbance percentage ([1]; 3 μM dye in TRICINE (50 mM, pH 8.0) +0.04% Tween 20, +2-8° C., 1 week): 97.7%
- Residual absorbance percentage ([1]; 3 μM dye in TRICINE (50 mM, pH 8.0) +0.04% Tween 20, +2-8° C., 2 weeks): 93.0%
- Residual absorbance percentage ([1]; 3 μM dye in TRICINE (50 mM, pH 8.0) +0.04% Tween 20, +2-8° C., 4 weeks): 89.8%
- Residual absorbance percentage ([2]; 3 μM dye in HEPES (50 mM, pH 7.4), 1 week (Table II)): 100.9%
- Residual absorbance percentage ([2]; 3 μM dye in HEPES (50 mM, pH 7.4), 2 weeks (Table II)): 100.3%
- Residual absorbance percentage ([2]; 3 μM dye in HEPES (50 mM, pH 7.4), 4 weeks (Table II)): 99.3%
- Residual absorbance percentage ([2]; 3 μM dye in MES (50 mM, pH 6.2), 1 week): 99.4%
- Residual absorbance percentage ([2]; 3 μM dye in MES (50 mM, pH 6.2), 2 weeks): 96.7%
- Residual absorbance percentage ([2]; 3 μM dye in MES (50 mM, pH 6.2), 4 weeks): 93.2%
- Residual absorbance percentage ([2]; 3 μM dye in MOPS (50 mM, pH 7.0), 1 week (Table II)): 99.3%
- Residual absorbance percentage ([2]; 3 μM dye in MOPS (50 mM, pH 7.0), 2 weeks (Table II)): 98.0%
- Residual absorbance percentage ([2]; 3 μM dye in MOPS (50 mM, pH 7.0), 4 weeks (Table II)): 95.2%
- Residual absorbance percentage ([2]; 3 μM dye in PBS (50 mM, pH 7.4), 1 week): 100%
- Residual absorbance percentage ([2]; 3 μM dye in PBS (50 mM, pH 7.4), 2 weeks): 92.9%
- Residual absorbance percentage ([2]; 3 μM dye in PBS (50 mM, pH 7.4), 4 weeks): 79.1%
- Residual absorbance percentage ([2]; 3 μM dye in PBS (50 mM, pH 7.4), 4 weeks, listed as IRDye 8000W): lower than 80%
- Residual absorbance percentage ([2]; 3 μM dye in TRICINE (50 mM, pH 8.0), 1 week (Table II)): 100.5%
- Residual absorbance percentage ([2]; 3 μM dye in TRICINE (50 mM, pH 8.0), 2 weeks (Table II)): 99.9%
- Residual absorbance percentage ([2]; 3 μM dye in TRICINE (50 mM, pH 8.0), 4 weeks (Table II)): 99.3%
- Residual absorbance percentage ([3]; 3 μM dye in HEPES (50 mM), 1 week): 100.9%
- Residual absorbance percentage ([3]; 3 μM dye in HEPES (50 mM), 2 weeks): 98.4%
- Residual absorbance percentage ([3]; 3 μM dye in MOPS (50 mM), 1 week): 99.7%
- Residual absorbance percentage ([3]; 3 μM dye in MOPS (50 mM), 2 weeks): 97.3%
- Residual absorbance percentage ([4]; 1 month): 99.3%
- Residual absorbance percentage ([4]; 3 months): 97.7%
- Residual absorbance percentage ([4]; 6 months): 96.2%

SMILES: O=S(=O)(O)CCN(CCO)CCO [BES, 2-[bis(2-hydroxyethyl)amino]ethanesulfonic acid]
- pKa (20° C.) [5]: 7.2

- Residual absorbance percentage ([2]; 3 μM dye in HEPES (50 mM, pH 7.4), 1 week (Table III)): 99.0%
- Residual absorbance percentage ([2]; 3 μM dye in HEPES (50 mM, pH 7.4), 2 weeks (Table III)): 98.5%
- Residual absorbance percentage ([2]; 3 μM dye in HEPES (50 mM, pH 7.4), 4 weeks (Table III)): 96.9%
- Residual absorbance percentage ([2]; 3 μM dye in MOPS (50 mM, pH 7.0), 1 week (Table III)): 98.8%
- Residual absorbance percentage ([2]; 3 μM dye in MOPS (50 mM, pH 7.0), 2 weeks (Table III)): 98.5%
- Residual absorbance percentage ([2]; 3 μM dye in MOPS (50 mM, pH 7.0), 4 weeks (Table III)): 96.1%
- Residual absorbance percentage ([2]; 3 μM dye in TRICINE (50 mM, pH 8.0), 1 week (Table III)): 99.7%
- Residual absorbance percentage ([2]; 3 μM dye in TRICINE (50 mM, pH 8.0), 2 weeks (Table III)): 98.7%
- Residual absorbance percentage ([2]; 3 μM dye in TRICINE (50 mM, pH 8.0), 4 weeks (Table III)): 97.9%
SMILES: CC1(C)C(/C=C/C2=C(Cl)C(=C/C=C3/N(CCCCS(=O)(=O)[O-])c4ccc(S(=O)(=O)[O-])cc4C3(C)C)/CCC2)=[N+](CCCCS(=O)(=O)[O-])c2ccc(S(=O)(=O)[O-])cc21.[Na+].[Na+].[Na+] [S0456]
